Patent US12565489B2, “Heterocyclyl pyrimidines and triazines as novel fungicides” (Bayer Aktiengesellschaft, priority 2020, dated 2026)

Tests used:
Sphaerotheca fuliginea = test: In vivo preventive test on Sphaerotheca fuliginea (powdery mildew on cucurbits); conditions: Podosphaera fuliginea, 192 h; 500 ppm of active ingredient; preventive spray on young gherkin plants; evaluated 8 days after inoculation; read-out: efficacy
Experimental: (§1) The active ingredients were made soluble and homogenized in a mixture of Dimethyl sulfoxide/Acetone//Tween®80 and then diluted in water to the desired concentration. The young plants of gherkin were treated by spraying the active ingredient prepared as described above. Control plants were treated only with an aqueous solution of Acetone/Dimethyl sulfoxide/Tween® 80. After 24 hours, the plants were contaminated by spraying the leaves with an aqueous suspension of Sphaerotheca fuliginea spores.

Septoria tritici = Septoria tritici in vitro cell test; format: cell-based; conditions: Zymoseptoria tritici, 168 h; 20 ppm of active ingredient; 7 days incubation; liquid culture, spectrometric measurement of mycelium growth; read-out: efficacy (inhibition of fungal growth)
Experimental: • Solvent: DMSO • Culture medium: 1 g KH2PO4 (VWR), 1 g K2HPO4 (VWR), 0.5 g Urea (VWR), 3 g KNO3 (Prolabo), 10 g saccharose (VWR), 0.5 g MgSO4, 7H2O (Sigma), 0.07 g CaCl2, 2H2O (Prolabo), 0.2 mg MnSO4, H2O (Sigma), 0.6 mg CuSO4, 5H2O (Sigma), 7.9 mg ZnSO4, 7H2O (Sigma), 0.1 mg H3BO3 (Merck), 0.14 mg NaMoO4, 2H2O (Sigma), 2 mg thiamine (Sigma), 0.1 mg biotine (VWR), 4 mg FeSO4, 7H2O (Sigma), QSP 1 liter • Inoculum: spore suspension Fungicides were solubilized in DMSO and the solution used to prepare the required range of concentrations. […] A spore suspension of S. tritici was prepared and diluted to the desired spore density. Fungicides were evaluated for their ability to inhibit spore germination and mycelium growth in liquid culture assay. The compounds were added in the desired concentration to the culture medium with spores. […] Inhibition of fungal growth was determined by comparing the absorbance values in wells containing the fungicides with the absorbance in control wells without fungicides.

Pyrenophora teres = Pyrenophora teres in vitro cell test; format: cell-based; conditions: 144 h, 20 ppm of active ingredient, 6 days incubation, liquid culture, spectrometric measurement of mycelium growth, read-out: efficacy (inhibition of fungal growth)
Experimental: (§2) • Solvent: DMSO • Culture medium: 14.6 g anhydrous D-glucose (VWR), 7.1 g Mycological Peptone (Oxoid), 1.4 g granulated Yeast Extract (Merck), QSP 1 liter • Inoculum: spore suspension Fungicides were solubilized in DMSO and the solution used to prepare the required range of concentrations. […] A spore suspension of P. teres was prepared and diluted to the desired spore density. Fungicides were evaluated for their ability to inhibit spore germination and mycelium growth in liquid culture assay. The compounds were added in the desired concentration to the culture medium with spores. After 6 days incubation, fungi-toxicity of compounds was determined by spectrometric measurement of mycelium growth. Inhibition of fungal growth was determined by comparing the absorbance values in wells containing the fungicides with the absorbance in control wells without fungicides.

Alternaria brassicae = test: In vivo preventive test on Alternaria brassicae (leaf spot on radish or cabbage); conditions: 144 h, 500 ppm of active ingredient, preventive spray on young radish or cabbage plants, evaluated 6 days after inoculation, read-out: efficacy
Experimental: as §1, with “radish or cabbage” for “gherkin”, “Alternaria brassicae” for “Sphaerotheca fuliginea”

[1] = tested on: Colletotrichum lindemuthianum; test: Colletotrichum lindemuthianum in vitro cell test; format: cell-based; conditions: 144 h, 20 ppm of active ingredient, 6 days incubation, liquid culture, spectrometric measurement of mycelium growth, read-out: efficacy (inhibition of fungal growth)
Experimental: as §2, with “of C. lindemuthianum” for “of P. teres”, “inhibit spores” for “inhibit spore”

Alternaria alternata = Alternaria alternata in vitro cell test; format: cell-based; conditions: 120 h, 20 ppm of active ingredient, 5 days incubation, liquid culture, spectrometric measurement of mycelium growth, read-out: efficacy (inhibition of fungal growth)
Experimental: as §2, with “of A. alternata” for “of P. teres”, “After 5” for “After 6”

Pyricularia oryzae = test: microbe, parasite or virus in culture; format: cell-based; conditions: 120 h, read-out: efficacy (inhibition of fungal growth)
Botrytis cinerea [2] = test: In vivo preventive test on Botrytis cinerea (grey mould); conditions: 500 ppm of active ingredient, preventive spray on young gherkin or cabbage plants, evaluated 4 to 5 days after inoculation, read-out: efficacy
Experimental: as §1, with “gherkin or cabbage” for “gherkin”, “Botrytis cinerea” for “Sphaerotheca fuliginea”

[3] = Measurement of Log P values by HPLC on reversed phase columns (EEC directive 79/831 Annex V.A8); format: physicochemical; conditions: LogP
Experimental: Measurement of Log P values as provided herein was performed according to EEC directive 79/831 Annex V.A8 by HPLC (High Performance Liquid Chromatography) on reversed phase columns with the following methods: • ^[a] Log P value is determined by measurement of LC-UV, in an acidic range, with 0.1% formic acid in water and acetonitrile as eluent (linear gradient from 10% acetonitrile to 95% acetonitrile). • ^[b] Log P value is determined by measurement of LC-UV, in a neutral range, with 0.001 molar ammonium acetate solution in water and acetonitrile as eluent (linear gradient from 10% acetonitrile to 95% acetonitrile). • ^[c] Log P value is determined by measurement of LC-UV, in an acidic range, with 0.1% phosphoric acid and acetonitrile as eluent (linear gradient from 10% acetonitrile to 95% acetonitrile).
If more than one Log P value is available within the same method, all the values are given and separated by “+”.
Calibration was done with straight-chain alkan2-ones (with 3 to 16 carbon atoms) with known Log P values (measurement of Log P values using retention times with linear interpolation between successive alkanones). Lambda-max-values were determined using UV-spectra from 200 nm to 400 nm and the peak values of the chromatographic signals

Botrytis cinerea [4] = test: Botrytis cinerea in vitro cell test; format: cell-based; conditions: 144 h, 20 ppm of active ingredient, 6 days incubation, liquid culture, spectrometric measurement of mycelium growth, read-out: efficacy (inhibition of fungal growth)
Experimental: • Solvent: DMSO • Culture medium: 1 g KH2PO4 (VWR), 1 g K2HPO4 (VWR), 0.5 g Urea (VWR), 3 g KNO3 (Prolabo), 10 g saccharose (VWR), 0.5 g MgSO4, 7H2O (Sigma), 0.07 g CaCl2, 2H2O (Prolabo), 0.2 mg MnSO4, H2O (Sigma), 0.6 mg CuSO4, 5H2O (Sigma), 7.9 mg ZnSO4, 7H2O (Sigma), 0.1 mg H3BO3 (Merck), 0.14 mg NaMoO4, 2H2O (Sigma), 2 mg thiamine (Sigma), 0.1 mg biotine (VWR), 4 mg FeSO4, 7H2O (Sigma), QSP 1 liter • Inoculum: spore suspension Fungicides were solubilized in DMSO and the solution used to prepare the required range of concentrations. […] A spore suspension of B. cinerea was prepared and diluted to the desired spore density. Fungicides were evaluated for their ability to inhibit spore germination and mycelium growth in liquid culture assay. The compounds were added in the desired concentration to the culture medium with spores. After 6 days incubation, fungi-toxicity of compounds was determined by spectrometric measurement of mycelium growth. Inhibition of fungal growth was determined by comparing the absorbance values in wells containing the fungicides with the absorbance in control wells without fungicides.

Compound	pest or weed control at 500 ppm (Sphaerotheca fuliginea)	inhibition at 20 ppm (Septoria tritici)	inhibition at 20 ppm (Pyrenophora teres)	pest or weed control at 500 ppm (Alternaria brassicae)	inhibition at 20 ppm [1]	inhibition at 20 ppm (Alternaria alternata)	inhibition at 20 ppm (Pyricularia oryzae)	pest or weed control at 500 ppm (Botrytis cinerea [2])	chromatographic logP [3]	inhibition at 20 ppm (Botrytis cinerea [4])
Cc1ncc(Oc2cccc(Cl)c2)c(C2=NOCC(c3ccc4c(c3)CCC4)N2)n1 (racemic) [Compound I-014, (5RS)-3-[5-(3-chlorophenoxy)-2-methyl-pyrimidin-4-yl]-5-indan-5-yl-5,6-dihydro-4H-1,2,4-oxadiazine]	90 to 100%	90 to 100%	90 to 100%	90 to 100%	90 to 100%	90 to 100%	90 to 100%	90 to 100%	4.05	90 to 100%
Cc1ccc(CC2CON=C(c3nc(C)ncc3Oc3cccc([N+](=O)[O-])c3)N2)c(C)c1 (racemic) [Compound I-003, (5RS)-5-(2,4-dimethylbenzyl)-3-[2-methyl-5-(3-nitro-phenoxy)pyrimidin-4-yl]-5,6-dihydro-4H-1,2,4-oxadiazine]	80 to 89%	90 to 100%	90 to 100%	90 to 100%	90 to 100%	90 to 100%	90 to 100%	90 to 100%	3.78	90 to 100%
